Assay results reported in US6680334B2, “Crystalline material” (Pfizer Inc, priority 2001, dated 2004).
≈ marks a conversion by molar mass, not a printed value.

Legend:
[1] = Solubility in aqueous buffers of different pH; format: physicochemical; conditions: for solubility: aqueous buffer
[2] = format: physicochemical
Procedure: The stability of crystalline amlodipine free base bulk and amlodipine free base tablets was assessed by storing samples for up to 6 or 12 weeks at 25° C./60% RH, 40° C./75% RH and 50° C./20% RH. Changes were monitored using a stability-indicating HPLC method. Results were calculated by normalised peak area (npa). Degradants were identified by comparison of their relative retention times against impurity standards.

For `CCOC(=O)C1=C(COCCN)NC(C)=C(C(=O)OC)C1c1ccccc1Cl` (racemic) [Example 2, Amlodipine], the solubility ([1]; pH 1.2, simulated gastric fluid, SGN pH: 1.20) was > 5000 µg/mL, the solubility ([1]; Acetate pH: 5.93) was > 5000 µg/mL and the solubility ([1]; Glycine pH: 9.25) was 130 µg/mL (≈ 318 µM). The solubility ([1]; NaOH pH: 11.44) was < 50 µg/mL and the solubility ([1]; Phosphate pH: 7.71) was 720 µg/mL (≈ 1760 µM).

For `CCOC(=O)C1=C(COCCN)NC(C)=C(C(=O)OC)C1c1ccccc1Cl` (stereo not shown) [crystalline amlodipine free base, 2-[(2-aminoethoxy)]-methyl-4-(2-chlorophenyl)-3-ethoxycarbonyl-5-methoxycarbonyl-6-methyl-1,4-dihydropyridine], the “Stability with respect to formation of known and unknown degradants” value [2] was “stability was demonstrated”.

In the case of `CCOC(=O)C1=C(COCCN)NC(C)=C(C(=O)OC)C1c1ccccc1Cl` (stereo not shown) [solid free base initially synthesised, Amlodipine, reference compound], the “Solubility (in words)” value ([1]; solid free base initially synthesised in-house, no conditions given) is reported as “poorly soluble”.
